Test results: PMC11673057, “Unlocking Testosterone Production by Biotransformation: Engineering a Fungal Model of Aspergillus nidulans Strain Deficient in Steroid 11α-Hydroxylase Activity and Expressing 17β-Hydroxysteroid Dehydrogenase Enzyme as Proof of Concept” (Biomolecules, 2024)

Molecular target: CYP68L1 (hydAN), steroid 11α-hydroxylase (Aspergillus nidulans, UniProt A0A6J3WXY1)
Experiment: whole-cell fermentation of knockout strain expressing enzyme, HPLC
Type: cell-based
Details: 32 °C, 72 h; 11alpha-hydroxylation

Sequence of CYP68L1 (hydAN), steroid 11α-hydroxylase (A0A6J3WXY1 entry or part of it): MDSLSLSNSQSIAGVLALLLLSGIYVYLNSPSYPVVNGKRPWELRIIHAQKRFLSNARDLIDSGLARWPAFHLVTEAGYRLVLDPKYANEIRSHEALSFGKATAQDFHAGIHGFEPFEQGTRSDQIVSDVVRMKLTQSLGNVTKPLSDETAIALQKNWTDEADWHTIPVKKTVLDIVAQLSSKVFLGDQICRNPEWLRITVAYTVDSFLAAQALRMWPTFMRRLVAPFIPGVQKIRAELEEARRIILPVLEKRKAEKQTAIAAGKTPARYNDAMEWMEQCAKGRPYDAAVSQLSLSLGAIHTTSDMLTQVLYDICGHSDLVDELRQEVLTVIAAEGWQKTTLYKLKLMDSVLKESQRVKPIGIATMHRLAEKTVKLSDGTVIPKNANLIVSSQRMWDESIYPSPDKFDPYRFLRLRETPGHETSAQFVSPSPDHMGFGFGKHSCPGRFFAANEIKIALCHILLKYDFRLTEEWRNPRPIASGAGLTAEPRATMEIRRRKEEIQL

## C[C@]12CCC(=O)C=C1CC[C@@H]1[C@@H]2CC[C@]2(C)C(=O)CC[C@@H]12 [AD, androstenedione]
  whole-cell fermentation of knockout strain expressing enzyme, HPLC: Hydroxylase activity was restored by expressing the hydAN gene encoding this CYP450 in the KOhydAN strain
